Experimental data published in article PMC7688903 (Frontiers in Microbiology, 2020).
Where a SMILES comes first, the peptide text is derived from it. [ ]: non-standard residue; d: D form. 2Thi = N[C@@H](Cc1cccs1)C(=O)O; Aib = CC(C)(N)C(=O)O

What was measured:
[1] = Circular dichroism spectroscopy, secondary structure; assay type: physicochemical; conditions: 0.1 mg/mL, 25°C; for [θ]222: average of three scans; for %α-helix: from [θ]222
Description: The secondary structures of Pep05 and its derivatives were investigated using a Chirascan qCD Spectrometer (Applied Photophysics, United Kingdom). The peptides were dissolved to a final concentration of 0.1 mg/mL in four different solvents, namely, 10 mM phosphate buffer (PB; pH 7.4), 50% TFE/PB, 25 mM SDS in PB, and 0.1% LPS in PB ([Kim et al., 2017]). Circular dichroism (CD) spectra were recorded from 260 to 190 nm at 25°C as the average of three scans. Data were collected using a path length of 0.1 cm, scan speed of 50 nm/min, bandwidth of 1.0 nm, response time of 1 s, and resolution of 0.1 nm ([Khara et al., 2016]). Following background subtraction, the observed ellipticity [θ]obs (mdeg) was converted to molar ellipticity [θ] (deg⋅cm^2⋅dmol^–1) using the equation [θ] = [θ]obs(MRW/10cl), where [θ]obs is the observed ellipticity corrected for the blank at a given wavelength (mdeg), MRW is the mean residue molecular weight (molecular weight/number of amino acids), c is the peptide concentration (mg/mL), and l is the path length (cm). Assuming a two-state model, the percentage of α-helix structure was calculated using the following equation: α-helical content = −([θ]222 + 2000)/30000 × 100% ([Jia et al., 2017]).
The influence of the amino acid substitutions on the peptide secondary structure was investigated using CD spectroscopy under different conditions, including 10 mM PB at pH 7.4 (mimicking an aqueous environment), 50% TFE (mimicking a hydrophobic bacterial membrane environment), 25 mM SDS (mimicking a negatively charged bacterial membrane environment), and 0.1% LPS (mimicking a bacterial outer membrane environment).

P. aeruginosa ATCC 9027 = experiment: In vivo antibacterial activity, lethal intraperitoneal infection; conditions: BALB/c mice, lethal i.p. dose of P. aeruginosa ATCC 9027, 10 mg/kg i.p. at 1 and 8 h post-infection, n = 10
Description: The in vivo antibacterial activities of the peptides were evaluated in BALB/c mice using P. aeruginosa ATCC 9027 as a test strain. A total of 20 mice (6 weeks old, approximate weight: 18–20 g, SFP grade) were first used to measure the minimal lethal doses (MLD) with 5 mice for each inoculum. Cell numbers of selected strains were determined from the colony numbers from the plate count agar and four inocula (1 × 10^6, 5 × 10^6, 1 × 10^7, and 5 × 10^7 CFU/mouse) were administered via intraperitoneal injection. The minimal lethal dose was determined by measuring the mortality rate after 72 h. BALB/c mice were then injected intraperitoneally with a lethal dose of P. aeruginosa ATCC 9027. […] Colistin (10 mg/kg) was used as a positive control. The survival of the animals was monitored over 7 d.

| SMILES | [θ]222 ([1]; 10 mM PB buffer pH 7.4) | %α-helix ([1]; 10 mM PB buffer pH 7.4, rc = random coil) | [θ]222 ([1]; 25 mM SDS in PB) | %α-helix ([1]; 25 mM SDS in PB, rc = random coil) | [θ]222 ([1]; 0.1% LPS in PB) | %α-helix ([1]; 0.1% LPS in PB) | [θ]222 ([1]; 50% TFE/PB) | %α-helix ([1]; 50% TFE/PB, rc = random coil) | survival rate (P. aeruginosa ATCC 9027; after 3 d) | survival rate (P. aeruginosa ATCC 9027; after 7 d) | degradation products by plasma proteases (LC-MS) (human plasma proteases) |
| --- | --- | --- | --- | --- | --- | --- | --- | --- | --- | --- | --- |
| CC(C)C[C@H](NC(=O)[C@H](Cc1ccc(O)cc1)NC(=O)[C@H](CCCCN)NC(=O)[C@H](CC(C)C)NC(=O)[C@H](CC(C)C)NC(=O)[C@H](CCCCN)NC(=O)[C@H](CCCCN)NC(=O)[C@H](Cc1ccccc1)NC(=O)[C@H](CC(C)C)NC(=O)[C@H](CCCNC(=N)N)NC(=O)C(C)(C)N)C(=O)N[C@@H](CCCNC(=N)N)C(=O)N[C@@H](CCCCN)C(=O)N[C@@H](Cc1cccs1)C(N)=O [UP09] (H-[Aib]RLFKKLLKYLRK[2Thi]-NH2; N-terminus assumed) | –1842.7 deg⋅cm^2⋅dmol^–1 | rc | –4643.3 deg⋅cm^2⋅dmol^–1 | 8.8% | –11064.1 deg⋅cm^2⋅dmol^–1 | 30.2% | –11436.9 deg⋅cm^2⋅dmol^–1 | 31.5% | 40% | 10% | – |
| CC(C)C[C@H](NC(=O)[C@H](CC(C)C)NC(=O)[C@@H](CCCCN)NC(=O)[C@@H](CCCCN)NC(=O)[C@H](Cc1ccccc1)NC(=O)[C@H](CC(C)C)NC(=O)[C@@H](CCCNC(=N)N)NC(=O)[C@H](N)CCCCN)C(=O)N[C@H](CCCCN)C(=O)N[C@@H](Cc1ccc(O)cc1)C(=O)N[C@@H](CC(C)C)C(=O)N[C@H](CCCNC(=N)N)C(=O)N[C@H](CCCCN)C(=O)N[C@@H](Cc1ccccc1)C(N)=O [DP06] (H-[dK][dR]LF[dK][dK]LL[dK]YL[dR][dK]F-NH2) | – | – | – | – | – | – | – | – | – | – | No obvious degradation products |
